The values that follow come from paper PMC5641330, “Prediction of a Therapeutic Dose for Buagafuran, a Potent Anxiolytic Agent by Physiologically Based Pharmacokinetic/Pharmacodynamic Modeling Starting from Pharmacokinetics in Rats and Human” (Frontiers in Pharmacology, 2017).

Series [1] can be described thus: Plasma protein binding by equilibrium dialysis, rat plasma. The format is in vitro ADME. The following applies: 0.5–2 μg/mL. As to the method: The plasma protein binding of buagafuran (0.5–2 μg/mL) was investigated by equilibrium dialysis. Aliquots (0.5 mL) of plasma were dialyzed against 10 mL phosphate buffered saline containing a ^3H-buagafuran tracer over a membrane with an 8,000- to 12,000-dalton molecular weight cutoff. Dialysis experiment was performed for 60 h at 4 °C. After the dialysis period, 100 μL of the PBS fraction (containing unbound buagafuran) and 100 μL of the plasma fraction (containing both bound and unbound drug) was taken for liquid scintillation counting. The ratio of buagafuran concentration in buffer to that in plasma was applied to calculate the unbound fraction (Fu).
For orientation: Equilibrium dialysis compares concentrations on both sides of a semipermeable membrane.

A short description of series [2]: PBPK simulation in rat (GastroPlus). From the text:
GastroPlus^TM software (version 8.5) was used to perform all simulations, (Simulations Plus, Inc., Lancaster, CA, United States). The absorption of oral formulations from the GI tract was modeled by the advanced compartmental absorption and transit (ACAT^TM) model implemented in GastroPlus ([Agoram et al., 2001]; [Kuentz et al., 2006]; [Huang et al., 2009]; [Zhang et al., 2011]). Input parameters in the ACAT model include three groups: formulation properties, physicochemical properties and pharmacokinetic parameters. […] The immediate release (IR) suspension for rat and IR capsule for human were selected for simulation of buagafuran in GastroPlus^TM. The ACAT model consists of nine compartments that mimic the GI tract. Each GI tract has an associated ASF. ASF is the multiplier used to scale the permeability to account for different surface-to-volume ratios, pH effects, transporter differences, and other factors that affect absorption between different compartments ([Zhang et al., 2011]). Four coefficients C1–C4 are used to calculate ASF. And there are eight basic ASF models in version 8.5. […]
The pharmacokinetic parameters of unbound fraction in plasma (FUp) were experimentally measured values. […]

Series [3] is described as follows: Brain concentrations in the rat after oral dosing (observed). The format is in vivo, male Wistar rats. The settings on record: oral 4 mg/kg. From the text: Animal Care and Welfare Committee of Institute of Materia Medica, Chinese Academy of Medical Sciences approved all animal protocols (1 Xian nong tan Street, Xicheng District, Beijing, China; Permission Number: SYXK 2014-0023, Expiration: 06 Aug, 2019). All animal programs are in compliance with the Guide for the Care and Use of Laboratory Animals issued by Beijing Association on Laboratory Animal Care (BALAC). Buagafuran formulation of PVP was suspended in deionized water and was orally administered at 4 or 8 mg/kg to male Wistar rats (weighing 180–200 g). Brain samples treated with the dose of 4 mg/kg and blood samples of both treatments were collected over 3 h. Plasma samples were obtained by centrifugation, and brain tissues were homogenized in a threefold volume (w/v) of saline. Buagafuran concentrations in plasma and brain samples were quantitated by an LC-MS/MS method ([Yang et al., 2011]).
A volume of 200 μL plasma or tissue homogenate was mixed with 100 μL IS (10 ng/mL) followed by addition of 2 mL hexane. After vortexing for 2 min, the mixture was centrifuged for 5 min at 3000 g. The extracted solution was combined and evaporated to dryness at 25°C. […] The outlet of the column was detected in positive ionization electrospray mode with selected reaction monitoring. The monitored transitions of buagafuran and IS were m/z 245→105 and 500→142, respectively. […]

SMILES strings stand for the structures.

As for `CCCCC1=CCC[C@@]2(C)CC[C@@H]3C[C@]12OC3(C)C` [buagafuran], the “concentration dependence of plasma protein binding” value in series [1] (rat plasma) is recorded as “no evident concentration-dependent binding”. Also, in series [1] (rat, plasma, equilibrium dialysis, read-out: Fup rat (unbound fraction in rat plasma)), the fraction unbound (commonly free concentration divided by total concentration) at 60 h came to 0.031. The Kp in series [2] (brain, oral, optimized by parameter sensitivity analysis, also used for human simulation) is 6.7. Also, the “input (refined) CLhep” value in series [2] (optimized by comparing fitting with observed PK data) was 36.8 mL/min/kg. Further, the Tmax in series [3] (male, Wistar, brain, read-out: time of maximum concentrations in brain) fell in the range of 15 to 30 min. The “time at which brain concentrations were detected” value in series [3] is recorded as 5 min.
